Experimental data: patent US8703769B2, “Use of EGFR inhibitors to prevent or treat obesity” (The University of North Carolina at Chapel Hill, priority 2005, dated 2014)

Legend:
Assay type in all cases: in vivo
EGFR [1] = biological target: T1, EGFR (Mus musculus, UniProt Q01279); assay: High fat diet with or without AG1478 for 6 months, B6 male mice (Example 3)
T1 construct: from tissue; host or cells: whole animal: wild-type C57BL/6J male mice
Protocol: (§1) Diets: A base Western Diet (D12079B, Research Diets, Inc., New Brunswick, N.J., U.S.A.) having 41% fat (kcal) was used in all studies, and is designated HFD. The small molecule inhibitor AG1478 (LC Laboratories, Woburn, Mass., U.S.A.) was added to this base diet to a final concentration of […]. This diet is designated HFD+INH.
(§2) In experiments using wild-type C57BL6/J (B6) mice, male mice were housed individually and were started on the diet experiments at 8 weeks of age. In Example 2, mice were maintained on the HFD or HFD+INH for 1 month. In Example 3, mice were maintained on the HFD (n=8) or HFD+INH (n=8) for 6 months. In Example 4, all mice were placed on the HFD for 3 months; after this time, Group 1 (n=4) was placed on HFD+INH, while Group 2 (n=4) was maintained on HFD.
(§3) Clinical chemistry: Non-fasted blood glucose levels were measured at baseline and monthly using the FREESTYLE® blood glucose monitor (Abbott Laboratories, Abbott Park, Ill., U.S.A.) which was calibrated per manufacturer's instruction prior to use. All measurements were taken from 4-5 pm. At sacrifice, blood was collected by retro-orbital bleed and serum was isolated. Serum concentrations of triglycerides and total cholesterol were measured using an automatic blood chemical analyzer (Johnson & Johnson, New Brunswick, N.J., U.S.A.) by the University of North Carolina at Chapel Hill Animal Clinical Chemistry and Gene Expression Laboratories Core.
(§4) Body composition analysis: On the day of analysis, mice were weighed, anaesthetized with 2-3% isofluorane, and body composition was determined with a PIXIMUS II™ Mouse Densitometer (GE Medical Systems, distributed by Faxitron X-Ray Corporation, Wheeling, Ill., U.S.A.) using software versions 1.46 and 2.10. These measurements were taken at baseline and monthly during the diet studies. The Dual-energy X-ray absorptiometry (DEXA) method of determining body composition and body fat has been validated in lean and obese mice (Brommage (2003) J Physiol Endocrinol Metab 285: E454-459).
(§5) Statistical analysis: Results are expressed as mean+/−STD. A two-sided unpaired student's t-test was used for preliminary statistical analysis.
In order to determine if the short-term effects on weight gain due to the inhibitor action were applicable over a longer time period, the experiments of Example 2 were extended over six months.
Baseline measurements (body weights, blood glucose, and percent body fat) were taken of 2-month-old male C57 BL/6J (B6) mice which were then housed individually and randomly assigned to receive either HFD or HFD+Inhibitor A (AG 1478). Measurements were again assessed at 1, 2 and 6 months of treatment. All mice were sacrificed at month 6. At sacrifice, blood was collected for clinical chemistry. Heart, liver and fat depots were also dissected and weighed. A two-sided unpaired student's t-test was used for preliminary statistical analysis.

EGFR [2] = biological target: T1, EGFR; assay: High fat diet with or without AG1478 for about 1 month, C57BL/6 male mice (Example 2); details: for accumulation of adipose tissue (percent body fat by DEXA): C57BL/6 male mice, HFD + AG1478 (144 ppm in diet) vs HFD alone, FIGS. 9-12
Protocol: as §1, §2, §3, §4, §5
FIGS. 9-12 depict the results of C57BL/6 male mice exposed either to a high fat diet (HFD; […]) or the HFD base diet plus the EGFR small molecule inhibitor AG1478 (144 ppm) for about 1 month. The mice were approximately 6 weeks old when started on the dietary study. Male littermates were housed together, so the data are shown as the mean per cage. There is an n of […] for the mice on the HFD+inhibitor (INH), with two test groups of 6 (HFD+INH1 and HFD+INH2) and an n of 4 for the HFD cage.

EGFR [3] = biological target: T1, EGFR; assay: Already obese B6 male mice on HFD switched to HFD+INH (Example 4); details: n=4 per group
Protocol: as §1, §2, §3, §4, §5
In order to assess whether EGFR inhibitors can effect weight loss or stasis in an already obese subject, obese mice were administered an EGFR inhibitor and body mass and chemistry measurements made over time while maintaining a HFD. Specifically, baseline measurements were taken of 2 month-old male B6 mice, which were then housed individually and placed on a HFD for 2 months. Body weights, blood glucose, and percent body fat were assessed at this time point, and mice were randomly assigned to two groups. Group 1 (Grp1) was continuously fed the HFD, while Group 2 (Grp2) was switched to the HFD+INH after the initial two months. Measurements were again assessed at 1 and 3 months after the diet switch (experimental month 3 and 5). All mice were sacrificed at month 5. At sacrifice, blood was collected for clinical chemistry and heart, liver and fat depots were dissected and weighed. A two-sided unpaired student's t-test was used for preliminary statistical analysis.

[4] = HFD+inhibitor A vs HFD alone, six months, n=8 per group, FIG. 14
[5] = plasma after 6 months, 7-8 mice per group, HFD+Inhibitor A vs HFD, FIG. 17
[6] = between treatment groups at sacrifice (month 5), FIG. 20B
[7] = between treatment groups, FIG. 21

T1 sequence (Q01279 25-1210): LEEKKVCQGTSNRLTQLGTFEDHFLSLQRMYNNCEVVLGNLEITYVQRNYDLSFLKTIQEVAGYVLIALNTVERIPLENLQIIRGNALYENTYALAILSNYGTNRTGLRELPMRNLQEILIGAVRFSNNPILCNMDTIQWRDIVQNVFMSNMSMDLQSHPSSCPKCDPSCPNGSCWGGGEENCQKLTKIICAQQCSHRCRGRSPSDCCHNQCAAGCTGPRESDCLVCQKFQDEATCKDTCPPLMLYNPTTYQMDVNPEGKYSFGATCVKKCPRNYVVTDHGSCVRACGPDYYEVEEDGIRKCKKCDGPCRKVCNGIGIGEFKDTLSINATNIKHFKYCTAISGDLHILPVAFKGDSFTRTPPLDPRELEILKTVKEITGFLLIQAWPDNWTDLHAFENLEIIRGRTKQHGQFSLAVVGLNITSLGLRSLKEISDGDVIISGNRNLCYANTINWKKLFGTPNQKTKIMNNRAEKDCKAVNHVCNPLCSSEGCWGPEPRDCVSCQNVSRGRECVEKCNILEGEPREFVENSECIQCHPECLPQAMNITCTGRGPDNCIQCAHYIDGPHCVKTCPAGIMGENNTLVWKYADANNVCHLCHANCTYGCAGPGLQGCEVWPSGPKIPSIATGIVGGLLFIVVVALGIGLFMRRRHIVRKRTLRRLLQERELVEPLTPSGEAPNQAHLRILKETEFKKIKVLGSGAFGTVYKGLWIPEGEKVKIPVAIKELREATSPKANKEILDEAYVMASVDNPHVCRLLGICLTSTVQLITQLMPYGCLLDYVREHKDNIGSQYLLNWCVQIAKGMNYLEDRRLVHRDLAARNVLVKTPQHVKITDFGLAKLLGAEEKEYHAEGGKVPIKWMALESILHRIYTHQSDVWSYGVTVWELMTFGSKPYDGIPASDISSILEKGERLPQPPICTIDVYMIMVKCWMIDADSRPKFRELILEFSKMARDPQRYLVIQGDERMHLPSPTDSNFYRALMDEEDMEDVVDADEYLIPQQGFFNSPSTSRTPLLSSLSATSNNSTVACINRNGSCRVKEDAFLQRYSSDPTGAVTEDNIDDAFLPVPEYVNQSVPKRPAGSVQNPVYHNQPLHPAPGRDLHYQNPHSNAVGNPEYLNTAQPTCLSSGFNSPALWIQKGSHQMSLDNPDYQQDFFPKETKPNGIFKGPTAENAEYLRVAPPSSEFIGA

`COc1cc2ncnc(Nc3cccc(Cl)c3)c2cc1OC` [AG1478, 4-(3-Chloroanillino)-6,7-dimethoxyquinazoline] was tested, and the “body weight (BW)” value (EGFR [1]; B6 male mice, HFD+inhibitor A vs HFD alone, 6 months, n=8 per group, FIG. 13) was “significantly decreased”, the “percent body fat as assessed by DEXA” value (EGFR [1]; B6 male mice, HFD+inhibitor A vs HFD alone, 6 months, n=8 per group, p<0.001, FIG. 13) was “significantly decreased” and the fat mass (EGFR [1]; [4]) was “decreased”. The lean body mass (EGFR [1]; [4]) was “no change”, the gross heart weight (EGFR [1]; after 6 months, HFD+Inhibitor A vs HFD, FIG. 16) was “no significant differences” and the gross liver weight (EGFR [1]; after 6 months, HFD+Inhibitor A vs HFD, p<0.02, FIG. 16) was “significantly reduced”. The “fat mass in the four major fat depots (intraperitoneal, intrascapular, kidney, perigonadal)” value (EGFR [1]; dissection after 6 months, HFD+Inhibitor A vs HFD, FIG. 15) was “decreased fat mass in all four major fat depots”, the total cholesterol level (EGFR [1]; [5]) was “significantly lower” and the triglyceride level (EGFR [1]; [5]) was “significantly lower”. For the same compound, the “accumulation of adipose tissue (percent body fat by DEXA)” value (EGFR [2]; about 1 month) was “reduction in adipose tissue accumulation”, the “accumulation of adipose tissue (percent body fat by DEXA)” value (EGFR [2]; about 1 month, listed as AG 1478) was “successfully inhibited the accumulation of adipose tissue” and the body weight gain (EGFR [2]; HFD+INH vs HFD control mice, one month, FIG. 11) was “gained less body weight”. The “food consumption per mouse per day” value (EGFR [2]; HFD+INH vs HFD, about 1 month, estimated from total food remaining per day, FIG. 10) was “no significant difference”, the “percent increase in BW relative to BW at 2 months on HFD” value (EGFR [3]; Group 2 (HFD+Inhibitor A) vs Group 1 (HFD), after 1 and 3 months on HFD+Inhibitor A, p<0.02, FIG. 18) was “significantly lower” and the “percent increase in BF (H), body fat by DEXA relative to time of diet change” value (EGFR [3]; Group 2 vs Group 1, after 3 months on HFD+Inhibitor A, p<0.02, FIG. 19) was “significantly lower”. The fat depot weights (EGFR [3]; between treatment groups at sacrifice (month 5), FIG. 20A) was “No significant differences”, the heart weight (EGFR [3]; [6]) was “No significant differences” and the liver weight (EGFR [3]; [6]) was “No significant differences”. The blood glucose level (EGFR [3]; [7]) was “no significant differences”, the total cholesterol level (EGFR [3]; [7]) was “no significant differences” and the triglyceride level (EGFR [3]; [7]) was “no significant differences”.
